The text below walks through data of patent US8642660B2, “Method for altering the lifespan of eukaryotic organisms” (The University of Rochester, priority 2007, dated 2014).

The test system of test [1] is yeast cells. Kind of test: "775" DeaD assay, single-concentration screen for countering nicotinamide lifespan shortening. To be noted: compounds 10 uM, 1.5 mM nicotinamide, 48 hours, OD615. The class given is cell-based, Saccharomyces cerevisiae. The arrangement: key: compounds that exhibited >26% inhibition are defined as active; Compounds that exhibited <=26% inhibition are defined as inactive. The text has this: Having established the suitability of the DeaD assay as a proxy for microdissection, the DeaD assay was used to screen a 132,796 compound library for the ability of compounds in the library to counter the lifespan-shortening effect of nicotinamide.
Specifically, as described in the AID 775 assay results (synonymously, the “775” assay results) on the “PubChem” website at pubchem.ncbi.nlm.nih.gov/assay/assay.cgi?aid=775, the contents of which are herein incorporated in their entirety by reference, the percent inhibition of nicotinamide lifespan shortening, i.e. percent reversal of nicotinamide effect on lifespan, was calculated using the optical density in control wells with cells treated with 1.5 mM nicotinamide as full lifespan shortening effect of nicotinamide (0% inhibition of nicotinamide), and wells with cells grown in medium without nicotinamide as an indicator of 100% inhibition. The appropriate compounds in the PubChem compound library (about 132,000 compounds selected from the total library of about 10 million compounds) were screened at 10 uM in the presence of 1.5 mM nicotinamide. For further details, see, e.g., the following references: Jarolim, S., Millen, J., Heeren, G., Laun, P., Goldfarb, D. S. and M. Breitenbach. (2004). A novel assay for replicative lifespan in Saccharomyces cerevisiae. FEMS Yeast Res. 5, 169-177; Bitterman, K. J., Anderson, R. M., Cohen, H. Y., Latorre-Esteves, M., and D. A. Sinclair. (2002). Inhibition of silencing and accelerated aging by nicotinamide, a putative negative regulator of yeast Sir2 and human SIRT1. J. Biol. Chem. 277, 45099-45107; Tsuchiya, M., Dang, N., Kerr, E. O., Hu, D., Steffen, K. K., Oakes, J. A., Kennedy, B. K. and M. Kaeberlein (2006) Sirtuin-independent effects of nicotinamide on lifespan extension from calorie restriction in yeast. Aging Cell. 5, 505-514.
Assays were conducted as follow. Cells were streaked out on a YPGal agar plate and grown for 48 hours at 30° C. Four colonies were selected, 50 mL of YPGal medium in a flask was inoculated and grown at 30° C. with shaking O/N. OD600 was measured. The OD should be <0.7 for the cells to be in log phase. The cells were centrifuged, washed once and resuspended in CSMM-D restrictive growth medium. OD600 was measured again. The culture was diluted to an OD600 of 0.002 in CSMM-D restrictive medium. The culture was pre-incubated in a flask with shaking at 30° C. for 4 hours. At the end of the pre-incubation, OD600 was measured for reference. Nicotinamide (negative control), medium alone (positive control) and compounds in the presence of nicotinamide were plated with DMSO at 10× concentration (final concentrations: nicotinamide 1.5 mM, compounds 10 uM, DMSO 0.25%) in 384-well plates: 5 uL/well. The yeast was added to the plates: 45 uL/well. Plates were incubated at 30 C in a humidified chamber. After 48 hours incubation, plates were shaken for 30 seconds and OD615 was read in an EnVision (PerkinElmer) multilabel plate reader. For these assays, YPGal medium was prepared as 10 grams yeast extract, 20 grams peptone, 900 mL water, autoclave at 121° C. for 15 minutes, add 100 mL sterile 20% (w/v) galactose. CSMM-D (Complete Synthetic Minimal Medium-Dextrose) (restrictive) medium was prepared as 6.7 grams yeast nitrogen base without amino acids, 2.0 grams Drop-out mix complete (DOC) (USBiological Cat. no. D9515), 100 mL 20% (w/v) dextrose, water to 1.0 L, then filter sterilize.
An activity threshold of >26% was calculated as greater than three standard deviations from the median compound inhibition. […] Because of the inherent error in all high-throughput screens including the fallacy of over-interpreting single dose data, a tiered scoring system was adopted for this Example, in which compounds were scored on a scale of 0-40 based on activity, with a scaled activity threshold of 11. Using this tiered scoring system, the compounds were ranked, with 906 of these compounds defined as “active” using this tiered scoring system. […]

A further test concerns DeaD strain BB579. Kind of test: "809" DeaD assay, dose-response screen (EC50) in presence of nicotinamide. The class given is cell-based, Saccharomyces cerevisiae. To be noted: compounds 0.078-10 uM, 1.5 mM nicotinamide, 48 hours. Set-up: key: An activity threshold of EC50<=10 uM was set and compounds that met this criterion are defined as active; Compounds that exhibited an EC50>10 uM are defined as inactive. The method, then:
As already discussed, Example 2 provides data using the “775” DeaD assay to determine compounds that counter the lifespan-reducing effects of 1.5 mM nicotinamide, with this Example identifying about 900 “active” compounds. Example 2 used only a single compound concentration of 10 uM; in the current Example, the top 500 of these “active” compounds were again screened using the DeaD assay, but now at 8 concentrations ranging from 0.078 to 10 uM, again in the presence of 1.5 mM nicotinamide, resulting in the data provided in Table 1. This more extensive data allowed for the determination of the half maximal effective concentration (EC50). See the “AID 809” assay (the “809” assay) results on the PubChem website at pubchem.ncbi.nlm.nih.gov/assay/assay.cgi?aid=809.
Thus, in this Example compounds were screened in an 8-point 2-fold dilution series ranging from 0.078 to 10 uM in the presence of 1.5 mM nicotinamide. The percent activation of lifespan, i.e. percent reversal of nicotinamide effect on lifespan, was calculated using the optical density in control wells with cells treated with 1.5 mM nicotinamide as full lifespan shortening effect of nicotinamide (0% activation), and wells with cells grown in medium without nicotinamide as an indicator of 100% activation. From the % activation values of the different compound concentrations, the half maximal effective concentration (EC50) was calculated using IDBS ActivityBase software and XLfit equation 205 for a four parameter logistic fit; the maximum and minimum values were fixed at 100% and 0%.
Assays were conducted as follow. Cells (DeaD strain BB579) were streaked out on a YPGal agar plate and grown for 48 hours at 30° C. Four colonies were selected, 50 mL of YPGal medium in a flask was inoculated and grown at 30 C with shaking O/N. OD600 was measured. The OD should be <0.7 for the cells to be in log phase. […] OD600 was measured again. […] At the end of the pre-incubation, OD600 was measured for reference. […] After 48 hours incubation, plates were shaken for 30 seconds and OD615 was read in an EnVision (PerkinElmer) multilabel plate reader. […]

Test [2] relates to yeast cells. The experiment in a line: Full DeaD assay lifespan timecourse (FIG. 3). In kind it is cell-based, Saccharomyces cerevisiae. To be noted: 2.5, 5.0, 10 uM, nonpermissive conditions. As for the experimental part:
FIG. 3 provides a plot showing DeaD assays for compound SID 855620 (nalidixic acid) in the presence and absence of nicotinamide. The nalidixic acid was incubated with growing cells under nonpermissive conditions at concentrations of 2.5, 5.0, and 10 uM (micromolar) in the presence and absence of 1.5 mM nicotinamide. Control experiments for growth in the presence and absence of nicotinamide without the drug are included. The last three entries showing the line labeling are all results obtained with 1.5 mM nicotinamide and, respectively, 2.5, 5 or 10 uM nalidixic acid. The data lines shown in this figure correspond to (topmost to bottommost as they appear at the extreme right side of the data lines): 2.5, 10, or 5 uM nalidixic acid (no nicotinamide); blank cells (labeled “no NIC”); 5 or 10 uM nalidixic acid plus 1.5 mM nicotinamide (in both cases); 10 uM nalidixic acid (no nicotinamide); and, blank cells with 1.5 mM nicotinamide (labeled “1.5 mM NIC”).
In order to validate the results of the “809” experiment of Example 3, timecourses for the effect of the top 70 compounds identified in Example 3 may be performed using the DeaD assay for, e.g., a 140 hour interval for each of these compounds. […]

Test [3] relates to yeast cells. Kind of test: Standard microdissection replicative lifespan assay (FIG. 4). The class given is cell-based, Saccharomyces cerevisiae. The method, then: FIG. 4 provides standard microdissection lifespans for nicotinamide in the presence of nalidixic acid and 5 mM nicotinamide. Three experiments that included three concentrations of nalidixic acid all increased mean lifespans (shown in parentheses) and maximum lifespans. In this Figure, “#864” refers to nalidixic acid, e.g., the second entry in the legend refers to 54 uM nalidixic acid, the third entry refers to 107 uM nalidixic acid, etc. The number presented in parentheses in the figure legend refers to the mean lifespan of the population in each experiment presented in this Figure, e.g., the control population (5 mM nicotinamide only) has a mean lifespan of 14.2 generations, etc.
In order to verify the data of Example 4 for nalidixic acid, microdissection experiments were performed using this compound to counter the effect of nicotinamide, with the results of these experiments shown in FIG. 4.

Another test concerns DeaD strain. Kind of test: DeaD assay validation with nicotinamide (FIG. 2). The class given is cell-based, Saccharomyces cerevisiae. To be noted: 0.5, 0.75, 1 mM NIC. The method, then:
Panel A: Under growth in glucose (nonpermissive conditions) DeaD lifespans are reduced in a dose-dependent fashion by increasing concentrations of nicotinamide. […] The lines shown in panel A correspond to (top to bottom) 0, 0.5, 0.75, and 1 mM NIC. The 3 lines visible in panel B correspond to (topmost to bottommost), 0.5, 0.75, or 1 mM NIC; the 0 mM NIC line is not visible.
The DeaD assay was developed as a high throughput proxy for conventional microdissection assays used to determine yeast replicative ageing. In order to verify the ability of this assay to produce results corresponding to conventional microdissection assay results, the data of FIG. 1 were obtained using either the DeaD assay (panel A) or via microdissection (panel B).

Another test relates to C. elegans. To be noted: Pnc1 and SIR2-ortholog dependent; Van der Horst et al. 2007; cited from earlier work.
Where [4] appears, read: 5 mM nicotinamide, three concentrations of nalidixic acid.

Regarding `CCOc1ccc(CC(=O)C2C(=O)CC(C)(C)CC2=O)cc1OCC` [SID 14732962], the “activity in the 775 assay (percent inhibition of nicotinamide lifespan shortening)” value in the test on yeast cells [1] was “inactive”.
Same read-out and setting: as for `CC1(C)CC(=O)C(C(=O)CCCCC(=O)C2C(=O)CC(C)(C)CC2=O)C(=O)C1` [SID 4245034], the entry is “inactive”.
Consider `CC1(C)CC(=O)C(C(=O)Cc2ccccc2[N+](=O)[O-])C(=O)C1` [SID 17511642], for which the “activity in the 775 assay (percent inhibition of nicotinamide lifespan shortening)” value in the test with yeast cells [1] was “active”. The “activity in the 809 assay (EC50)” value with DeaD strain BB579 is “active”.
For `CCCC(=O)C1C(=O)CC(C)(C)C(c2cc(C)no2)C1=O` (stereo not shown) [SID 7972147], the “activity in the 775 assay (percent inhibition of nicotinamide lifespan shortening)” value in the test on yeast cells [1] is reported as “active”.
Regarding `CCn1cc(C(=O)O)c(=O)c2ccc(C)nc21` [nalidixic acid], the DeaD lifespan entry in the test on yeast cells [2] (in the absence of nicotinamide) is given as “extends DeaD lifespan”. The DeaD lifespan result in the test with yeast cells [2] (in the presence of 1.5 mM nicotinamide) was “extends DeaD lifespan”. In the test on yeast cells [3] (setting [4]), the maximum lifespan entry is recorded as “increased” and the mean lifespan entry was “increased”.
Consider `Cc1cc(C2C(=O)C(C(=O)c3ccc(Cl)cc3)C(=O)CC2(C)C)on1` (stereo not shown) [SID 842694], for which the “activity in the 775 assay (percent inhibition of nicotinamide lifespan shortening)” value in the test on yeast cells [1] was “inactive”.
`CCOC(=O)C1C(=O)C(C(C)=O)C(=O)CC1CC(C)SCC` (stereo not shown) [SID 14724551]: in the test on yeast cells [1], the “activity in the 775 assay (percent inhibition of nicotinamide lifespan shortening)” value is on record as “active”. The “activity in the 809 assay (EC50)” value in the test with DeaD strain BB579 is reported as “active”.
For the compound `COC(=O)CCCCC(=O)C1C(=O)CC(C)(C)C(C(=O)OC)C1=O` (stereo not shown) [SID 7972920], in the test with yeast cells [1], the “activity in the 775 assay (percent inhibition of nicotinamide lifespan shortening)” value was “inactive”.
For `CCCC(=O)C1C(=O)CC(CC(C)SCC)CC1=O` (stereo not shown) [SID 14732512], the “activity in the 775 assay (percent inhibition of nicotinamide lifespan shortening)” value with yeast cells [1] is reported as “active”. In the test on DeaD strain BB579, the “activity in the 809 assay (EC50)” value is given as “active”.
On to `NC(=O)c1cccnc1` [nicotinamide], for which the mean lifespan in the test on yeast cells [3] (control population, 5 mM nicotinamide only) was 14.2 generations. Also, the “growth under permissive conditions” value in the test with DeaD strain (growth in galactose (permissive conditions)) is listed as “without altering growth”. Further, the DeaD lifespan result in the test with DeaD strain (growth in glucose (nonpermissive conditions)) is “reduces the lifespan of the DeaD strain in a dose-dependent fashion”. Also, the C. elegans lifespan entry with C. elegans was “reduce C. elegans lifespan”.
